ChEMBL document CHEMBL1126154, “Pyrrole mannich bases as potential antipsychotic agents” (J Med Chem, 1992)

Experiments:
[1] = molecular target: T1, Serotonin 1 (5-HT1) receptor (Rattus norvegicus, UniProt P28564+P30940+P19327+P28565); assay: The compound was tested for its binding affinity towards 5-hydroxytryptamine 1 receptor by displacing [3H]5-HT radioligand in rat cerebral cortex; format: tissue-based
[2] = molecular target: Serotonin 2 (5-HT2) receptor (Rattus norvegicus, UniProt P30994+P08909+P14842); assay: The compound was tested for its binding affinity towards 5-hydroxytryptamine 2 receptor by displacing [3H]ketanserin radioligand in rat cerebral cortex; format: tissue-based
[3] = molecular target: T2, Adrenergic receptor alpha-1 (Rattus norvegicus, UniProt P15823+P23944+P43140); assay: The compound was tested for its binding affinity towards Alpha-1 adrenergic receptor by displacing [3H]WB-4101 radioligand in rat cerebral cortex; format: tissue-based
T2 sequence (P15823 whole entry): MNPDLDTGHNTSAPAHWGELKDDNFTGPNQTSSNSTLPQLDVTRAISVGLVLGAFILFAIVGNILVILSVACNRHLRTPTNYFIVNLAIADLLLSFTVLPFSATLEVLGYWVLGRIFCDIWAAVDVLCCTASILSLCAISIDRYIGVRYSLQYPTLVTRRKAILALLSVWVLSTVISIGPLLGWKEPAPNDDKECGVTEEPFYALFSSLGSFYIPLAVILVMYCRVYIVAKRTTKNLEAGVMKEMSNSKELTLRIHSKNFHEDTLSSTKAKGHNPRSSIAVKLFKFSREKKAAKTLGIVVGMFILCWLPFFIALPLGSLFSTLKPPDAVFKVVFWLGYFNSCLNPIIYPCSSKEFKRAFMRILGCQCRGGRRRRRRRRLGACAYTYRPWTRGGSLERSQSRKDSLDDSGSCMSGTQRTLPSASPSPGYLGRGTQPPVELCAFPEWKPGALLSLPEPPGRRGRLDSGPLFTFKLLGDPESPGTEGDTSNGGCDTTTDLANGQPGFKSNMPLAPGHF
T2 sequence (P23944 whole entry): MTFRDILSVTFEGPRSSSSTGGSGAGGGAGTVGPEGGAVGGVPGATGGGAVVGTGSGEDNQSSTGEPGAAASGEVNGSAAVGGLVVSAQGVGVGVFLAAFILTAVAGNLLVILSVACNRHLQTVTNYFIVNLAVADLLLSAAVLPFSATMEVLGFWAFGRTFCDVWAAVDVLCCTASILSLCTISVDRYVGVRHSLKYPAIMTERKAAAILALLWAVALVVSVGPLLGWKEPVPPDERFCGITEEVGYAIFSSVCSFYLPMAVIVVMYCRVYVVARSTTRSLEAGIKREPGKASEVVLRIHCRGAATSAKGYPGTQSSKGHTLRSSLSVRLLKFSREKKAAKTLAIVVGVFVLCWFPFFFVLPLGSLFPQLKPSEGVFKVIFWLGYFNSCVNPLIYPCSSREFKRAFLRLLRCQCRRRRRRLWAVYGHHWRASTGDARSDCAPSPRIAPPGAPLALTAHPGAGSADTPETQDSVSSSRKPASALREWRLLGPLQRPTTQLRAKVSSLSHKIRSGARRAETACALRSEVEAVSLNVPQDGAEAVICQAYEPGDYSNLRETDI
T2 sequence (P43140 whole entry): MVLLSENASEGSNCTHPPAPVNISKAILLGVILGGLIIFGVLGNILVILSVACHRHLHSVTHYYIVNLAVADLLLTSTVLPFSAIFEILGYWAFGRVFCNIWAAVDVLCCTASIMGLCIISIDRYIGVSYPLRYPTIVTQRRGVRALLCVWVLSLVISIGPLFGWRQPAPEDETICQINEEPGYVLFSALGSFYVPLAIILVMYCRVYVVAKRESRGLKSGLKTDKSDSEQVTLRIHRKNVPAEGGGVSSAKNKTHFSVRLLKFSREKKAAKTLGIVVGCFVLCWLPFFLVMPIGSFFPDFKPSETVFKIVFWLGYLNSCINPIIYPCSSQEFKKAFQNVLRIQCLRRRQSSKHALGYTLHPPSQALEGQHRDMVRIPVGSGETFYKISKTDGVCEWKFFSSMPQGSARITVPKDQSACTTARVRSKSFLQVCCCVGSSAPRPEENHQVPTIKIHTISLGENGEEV

Rattus norvegicus [4] = assay: The percentage production of catalepsy in rat at a dose of 57 mg/kg ip.; format: functional
Rattus norvegicus [5] = assay: Antipsychotic activity at a dose 10 times the ED50 value for CAR block for production of catalepsy in the rat (following i.p. dosing); format: functional; conditions: ip
Rattus norvegicus [6] = assay: The compound was measured at a dose 10 times the ED50 value for CAR block for production of catalepsy in the rat via oral administration.; format: functional
Rattus norvegicus [7] = assay: The percentage production of catalepsy in rat at a dose of 100 mg/kg ip.; format: functional
[8] = molecular target: T3, 5-hydroxytryptamine receptor 1A (Rattus norvegicus, UniProt P19327); assay: Binding affinity towards 5-hydroxytryptamine 1A receptor by displacing [3H]WB-4101 from rat hippocampus; format: tissue-based
T3 sequence (P19327 whole entry): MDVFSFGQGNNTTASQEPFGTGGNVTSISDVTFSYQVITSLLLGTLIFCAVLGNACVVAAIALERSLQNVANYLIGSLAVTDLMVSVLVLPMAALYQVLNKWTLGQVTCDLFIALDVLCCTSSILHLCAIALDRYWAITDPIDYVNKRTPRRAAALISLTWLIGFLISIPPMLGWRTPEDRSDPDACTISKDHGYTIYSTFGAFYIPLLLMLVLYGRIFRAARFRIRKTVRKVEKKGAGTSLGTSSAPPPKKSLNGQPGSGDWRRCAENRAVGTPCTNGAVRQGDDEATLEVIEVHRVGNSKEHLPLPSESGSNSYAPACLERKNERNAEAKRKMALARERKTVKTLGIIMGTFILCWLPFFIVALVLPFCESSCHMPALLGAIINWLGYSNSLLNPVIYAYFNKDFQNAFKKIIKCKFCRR

[9] = molecular target: 5-hydroxytryptamine receptor 1B (Rattus norvegicus, UniProt P28564); assay: The compound was tested for its binding affinity towards 5-hydroxytryptamine 1B receptor by displacing [3H]serotonin radioligand in rat cerebral cortex; format: tissue-based
Rattus norvegicus [10] = assay: The percentage production of catalepsy in rat at a dose of 37 mg/kg ip.; format: functional
Rattus norvegicus [11] = assay: The percentage production of catalepsy in rat at a dose of 58 mg/kg ip.; format: functional
Rattus norvegicus [12] = assay: The percentage production of catalepsy in rat at a dose of 50 mg/kg ip.; format: functional
Rattus norvegicus [13] = assay: The percentage production of catalepsy in rat at a dose of 90 mg/kg ip.; format: functional
Rattus norvegicus [14] = assay: The percentage production of catalepsy in rat at a dose of 27 mg/kg ip.; format: functional
Rattus norvegicus [15] = assay: The percentage production of catalepsy in rat at a dose of 40 mg/kg ip.; format: functional
Rattus norvegicus [16] = assay: The percentage production of catalepsy in rat at a dose of 20 mg/kg ip.; format: functional
Rattus norvegicus [17] = organism: Rattus norvegicus; assay: ED50 value for catalepsy indicates the dose required to produce a 50% of maximum catalepsy score. parentheses; format: functional
Rattus norvegicus [18] = organism: Rattus norvegicus; assay: ED50 value for catalepsy indicates the dose required to produce a 50% of maximum catalepsy score. parentheses value indicate 95% confidence limit.; format: functional
[19] = molecular target: T1, Serotonin 1 (5-HT1) receptor
Description: The binding affinity was measured on serotonin 5-hydroxytryptamine 1 receptor in rat brain tissue

[20] = molecular target: T3, 5-hydroxytryptamine receptor 1A; assay: biochemical
Description: The compound was tested for its binding affinity towards 5-hydroxytryptamine 1A receptor by displacing [3H]WB-4101 radioligand in rat hippocampus

Rattus norvegicus [21] = organism: Rattus norvegicus; assay: ED50 value for catalepsy indicates the dose required to produce a 50% of maximum catalepsy score.; format: functional
Rattus norvegicus [22] = assay: The percentage production of catalepsy in rat at a dose of 70 mg/kg ip.; format: functional
Rattus norvegicus [23] = assay: The percentage production of catalepsy in rat at a dose of 4 mg/kg ip.; format: functional
Rattus norvegicus [24] = organism: Rattus norvegicus; assay: The compound was measured at a dose 10 times the ED50 value for CAR block for production of catalepsy in the rat; format: functional, organism-based
Rattus norvegicus [25] = organism: Rattus norvegicus; assay: ED50 value for catalepsy indicates the dose required to produce a 50% of maximum catalepsy score; format: functional, organism-based
D(2) dopamine receptor = D(2) dopamine receptor (Rattus norvegicus, UniProt P61169); assay: The compound was tested for its binding affinity towards Dopamine receptor D2 by displacing [3H]spiperone radioligand in rat striatum
Rattus norvegicus [26] = assay: The percentage production of catalepsy in rat at a dose of 54 mg/kg ip.; format: functional
[27] = Rattus norvegicus, po, read-out: ED50

Sequence of 5-hydroxytryptamine receptor 1B (P28564 whole entry): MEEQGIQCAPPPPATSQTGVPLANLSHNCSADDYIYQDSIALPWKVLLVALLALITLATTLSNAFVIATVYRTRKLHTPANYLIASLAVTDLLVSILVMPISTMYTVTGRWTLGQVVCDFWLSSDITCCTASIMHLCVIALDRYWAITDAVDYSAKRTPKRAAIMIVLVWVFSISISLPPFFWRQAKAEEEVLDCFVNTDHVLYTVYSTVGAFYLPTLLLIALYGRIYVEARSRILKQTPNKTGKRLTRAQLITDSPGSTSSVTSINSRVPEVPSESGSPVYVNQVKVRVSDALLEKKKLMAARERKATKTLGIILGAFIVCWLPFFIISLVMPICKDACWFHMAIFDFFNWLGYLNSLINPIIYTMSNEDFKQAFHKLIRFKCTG
Sequence of D(2) dopamine receptor (P61169 whole entry): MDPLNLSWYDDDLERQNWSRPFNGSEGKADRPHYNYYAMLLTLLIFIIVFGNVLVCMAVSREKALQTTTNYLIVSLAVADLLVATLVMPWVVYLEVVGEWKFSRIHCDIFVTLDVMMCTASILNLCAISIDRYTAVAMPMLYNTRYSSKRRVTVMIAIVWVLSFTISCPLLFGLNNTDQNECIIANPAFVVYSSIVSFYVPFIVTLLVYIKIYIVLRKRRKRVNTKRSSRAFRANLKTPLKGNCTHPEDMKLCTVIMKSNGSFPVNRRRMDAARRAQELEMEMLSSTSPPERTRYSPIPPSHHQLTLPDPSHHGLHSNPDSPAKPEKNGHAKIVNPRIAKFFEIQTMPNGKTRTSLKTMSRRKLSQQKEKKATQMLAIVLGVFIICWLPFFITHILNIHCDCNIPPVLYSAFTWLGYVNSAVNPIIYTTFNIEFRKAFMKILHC

Row | Compound | Ki [1] [nM] | Ki [2] [nM] | Ki [3] [nM] | ED50 (Rattus norvegicus [5]) [mg/kg] | ED50 (Rattus norvegicus [6]; [27]) [mg/kg] | further results
1 | CC(C)Oc1ccccc1N1CCN(Cc2ccc(CN3CCCCCC3=O)n2C)CC1 | 68.8 | 1000 | 16.3 | 5.7 | 18.9 | % catalepsy at 57 mg/kg (Rattus norvegicus [4]): 26%
2 | CC(C)c1ccccc1N1CCN(Cc2ccc(CN3CCCCCC3=O)n2C)CC1 | 82.1 | 110 | 53.9 | 10 | > 30 | % catalepsy at 100 mg/kg (Rattus norvegicus [7]): 17%
3 | CCC(C)Oc1ccccc1N1CCN(Cc2ccc(CN3CCCCC3=O)n2C)CC1 (stereo not drawn) | 29.3 | 267 | 17.4 | 3.7 | – | Ki [8]: 1.8 nM; Ki [9]: 45 nM; % catalepsy at 37 mg/kg (Rattus norvegicus [10]): 17%
4 | Cn1c(CN2CCN(c3cccc(C(F)(F)F)c3)CC2)ccc1CN1CCCC1=O | 156 | 1000 | > 1000 | 5.8 | – | % catalepsy at 58 mg/kg (Rattus norvegicus [11]): 56%
5 | Cn1c(CN2CCN(c3cccc(Cl)c3)CC2)ccc1CN1CCCCC1=O | – | – | – | 10.4 | – | Ki [9]: 95 nM; % catalepsy at 50 mg/kg (Rattus norvegicus [12]): 28%
6 | CC(C)c1ccccc1N1CCN(Cc2ccc(CN3CCCCC3=O)n2C)CC1 | 41.3 | 137 | – | 8.9 | > 30 | % catalepsy at 90 mg/kg (Rattus norvegicus [13]): 19%
7 | CC(C)Oc1ccccc1N1CCN(Cc2ccc(CN3CCCC3=O)n2C)CC1 | 120 | 386 | 7.3 | 2.2 | > 20 | % catalepsy at 27 mg/kg (Rattus norvegicus [14]): 52%
8 | CC(C)Oc1ccccc1N1CCN(Cc2ccc(CN3CCCCCCC3=O)n2C)CC1 | 18.1 | 260 | 20.8 | 4 | > 30 | Ki [8]: 1.7 nM; Ki [9]: 75 nM; % catalepsy at 40 mg/kg (Rattus norvegicus [15]): 4.2%
9 | CCOc1ccccc1N1CCN(Cc2ccc(CN3CCCC3=O)n2C)CC1 | 76 | 455 | 27.5 | 1.8 | 32 | % catalepsy at 20 mg/kg (Rattus norvegicus [16]): 97%
10 | COc1ccccc1N1CCNCC1 | 28 | > 100 | – | 5.6 | – | ED50 (Rattus norvegicus [17]): > 45 mg/kg
11 | CN(C)CCCN1c2ccccc2Sc2ccc(Cl)cc21 [CHLORPROMAZINE] | – | – | – | 1.9 | – | ED50 (Rattus norvegicus [18]): 9.4 mg/kg; Ki [19]: > 1000 nM; Ki [20]: 179 nM
12 | CN1CCN(C2=Nc3cc(Cl)ccc3Nc3ccccc32)CC1 [CLOZAPINE] | – | – | – | – | 32.5 | ED50 (Rattus norvegicus [21]): > 70 mg/kg; % catalepsy at 70 mg/kg (Rattus norvegicus [22]): 10%
13 | Cc1nc2n(c(=O)c1CCN1CCC(c3noc4cc(F)ccc34)CC1)CCCC2 [RISPERIDONE] | – | – | – | – | 2.2 | % catalepsy at 4 mg/kg (Rattus norvegicus [23]): 50%; ED50 (Rattus norvegicus [24]): 0.32 mg/kg; ED50 (Rattus norvegicus [25]): 3.5 mg/kg
14 | Cc1nc2sccn2c(=O)c1CCN1CCC(=C(c2ccc(F)cc2)c2ccc(F)cc2)CC1 [RITANSERIN] | – | – | 49.5 | > 3 | – | Ki (D(2) dopamine receptor): 53.2 nM
15 | CC(C)Oc1ccccc1N1CCN(Cc2ccc(CN3CCCCC3=O)n2C)CC1 [RWJ-25730] | – | 1006 | – | – | – | % catalepsy at 54 mg/kg (Rattus norvegicus [26]): 12.1%; ED50 (Rattus norvegicus [6]): 10.4 mg/kg
